Tested on: fibroblasts (HDFn)
Experiment: Cell culture on microgels, HDFn
Assay type: cell-based, human
Details: first 24 h of culture
Protocol: A 1.2×10^6 amount of cells suspended in 4 mL of complete cell culture media (300,000 cells/mL) was mixed with 200 μL of microgels by pipetting. The mix was seeded at […] in a 24-well low binding plate and kept at 37° C., 95% humidity, and 5% CO2 under rocker conditions at 30 rpm for 24 h. Then, cell-laden microgels were transferred into a tube by pipetting and spun down at 50 g for 5 min. The upper layer, containing cells not adherent to the microgels, was discarded. At this moment, cell-laden microgels were either resuspended with complete cell culture media to continue cell culture under rocker conditions or processed for staining.
The cell-laden microgels were fixed with 4% formaldehyde (v/v) in PBS and incubated for 30 min at 22° C. Later, formaldehyde was removed by centrifugation, and cell-laden microgels were washed twice with PBS in a similar way. Permeabilization buffer (6.3 mM MgCl2, 233.7 mM sucrose, 0.5% (v/v) Triton® X-100 in PBS) was kept at −20° C. and thawed just before use. […]
Proliferative cells were labeled by incubating cell-laden microgels with […] EdU in complete medium for 24 h in rocking culture at 30 rpm. […] EdU was detected following the manufacturer instructions by incubating cell-laden microgels with a Click-iT Plus reaction cocktail for 30 min at 22° C. protected from light. […]

Substance | HDFn cell adhesion and morphology on microgels
Ac-Ile-Val-Cha-Lys-NH2 (IVXK; HELM PEPTIDE1{[ac].I.V.[Cha].K.[am]}$$$$V2.0; SMILES CC[C@H](C)[C@H](NC(C)=O)C(=O)N[C@H](C(=O)N[C@@H](CC1CCCCC1)C(=O)N[C@@H](CCCCN)C(N)=O)C(C)C) [IVZK, self-assembling ultrashort tetrapeptide, Z = cyclohexylalanine, forms hydrogels and microgels] | cell adhesion and stretched morphology
Ac-Ile-Val-Phe-Lys-NH2 (Ac-IVFK-NH2) [self-assembling ultrashort tetrapeptide, forms hydrogels and microgels] | cell adhesion and stretched morphology
